Laboratory results reported in ChEMBL document CHEMBL4376867 (J Med Chem, 2020).

Experiments:
IKK epsilon/TBK1 = target: T1, IKK epsilon/TBK1 (Homo sapiens, UniProt Q14164+Q9UHD2); experiment: Inhibition of IKKepsilon/TBK1 in human MDB-MB-231 cells transduced with lentiviral vector expressing human IRF3 assessed as decrease in poly(I:C)-stimulated IRF3 phosphorylation at S385/386 residues preincubated for 1 hr followed by poly(I:C) addition and measured after 1 hr; format: cell-based
T1 sequence (Q14164 whole entry): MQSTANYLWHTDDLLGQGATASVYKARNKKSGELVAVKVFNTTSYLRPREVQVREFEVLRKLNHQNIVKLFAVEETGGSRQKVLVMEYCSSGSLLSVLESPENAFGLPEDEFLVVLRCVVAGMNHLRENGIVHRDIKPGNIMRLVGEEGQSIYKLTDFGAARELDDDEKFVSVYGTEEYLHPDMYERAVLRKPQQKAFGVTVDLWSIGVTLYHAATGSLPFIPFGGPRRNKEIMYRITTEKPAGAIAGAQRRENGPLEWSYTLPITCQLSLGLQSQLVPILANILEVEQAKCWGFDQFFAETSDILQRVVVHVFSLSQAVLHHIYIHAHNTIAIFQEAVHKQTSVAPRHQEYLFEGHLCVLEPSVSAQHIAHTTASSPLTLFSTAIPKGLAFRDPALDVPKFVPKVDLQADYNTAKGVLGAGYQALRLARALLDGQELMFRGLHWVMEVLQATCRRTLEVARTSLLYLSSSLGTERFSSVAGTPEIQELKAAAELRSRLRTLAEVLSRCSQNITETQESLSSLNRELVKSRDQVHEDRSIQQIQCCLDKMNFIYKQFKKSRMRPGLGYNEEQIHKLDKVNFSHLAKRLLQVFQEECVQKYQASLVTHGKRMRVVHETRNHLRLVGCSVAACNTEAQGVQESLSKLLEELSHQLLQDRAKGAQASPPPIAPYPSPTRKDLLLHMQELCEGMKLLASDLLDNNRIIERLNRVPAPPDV
T1 sequence (Q9UHD2 whole entry): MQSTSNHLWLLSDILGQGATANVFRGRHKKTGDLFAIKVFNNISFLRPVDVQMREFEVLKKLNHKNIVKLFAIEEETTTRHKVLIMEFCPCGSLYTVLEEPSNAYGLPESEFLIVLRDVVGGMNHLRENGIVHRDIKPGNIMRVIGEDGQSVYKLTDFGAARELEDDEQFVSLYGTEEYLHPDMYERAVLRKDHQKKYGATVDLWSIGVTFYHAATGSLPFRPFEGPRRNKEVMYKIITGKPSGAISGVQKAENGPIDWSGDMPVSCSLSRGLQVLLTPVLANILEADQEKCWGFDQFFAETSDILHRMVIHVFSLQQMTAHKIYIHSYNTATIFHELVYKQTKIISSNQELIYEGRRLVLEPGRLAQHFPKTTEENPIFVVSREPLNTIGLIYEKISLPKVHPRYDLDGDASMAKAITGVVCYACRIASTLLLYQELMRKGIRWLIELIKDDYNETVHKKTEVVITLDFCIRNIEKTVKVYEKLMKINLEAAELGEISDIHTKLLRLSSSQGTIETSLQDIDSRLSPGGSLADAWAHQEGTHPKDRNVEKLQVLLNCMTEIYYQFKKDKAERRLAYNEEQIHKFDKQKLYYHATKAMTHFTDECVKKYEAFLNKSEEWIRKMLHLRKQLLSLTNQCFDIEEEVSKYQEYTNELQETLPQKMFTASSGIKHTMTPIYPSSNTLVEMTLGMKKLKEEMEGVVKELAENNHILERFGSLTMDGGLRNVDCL

CDK9/cyclin T1 = CDK9/cyclin T1 (Homo sapiens, UniProt P50750); experiment: Inhibition of recombinant full length human His-tagged CDK9/CyclinT1 expressed in baculovirus expression system using biotin-labelled Ttds-YISPLKSPYKISEG peptide as substrate preincubated with enzyme for 15 mins followed by substrate addition and further incubated for 25 mins presence of 10 uM of ATP by TR-FRET assay
[1] = Efflux ratio of apparent permeability across basolateral to apical membrane over apical to basolateral membrane in human Caco2 cells; format: ADME, cell-based; conditions: Caco-2
[2] = target: Ribosomal protein S6 kinase alpha-6 (Homo sapiens, UniProt Q9UK32); experiment: Inhibition of recombinant full length human His6-tagged RSK4 expressed in baculovirus infected sf21 cells using biotin labelled Ahx-KKLNRTLSFAEPG peptide as substrate preincubated with enzyme for 15 mins followed by substrate addition and further incubated for 30 mins in presence of 10 uM of ATP by TR-FRET assay
[3] = Apparent permeability of compound across basal to apical membrane in human Caco2 cells at 2 uM in DMSO after 2 hrs by LC-MS/MS analysis; format: ADME, cell-based; conditions: Caco-2
[4] = target: T2, Inhibitor of nuclear factor kappa-B kinase subunit epsilon (Homo sapiens, UniProt Q14164); experiment: Inhibition of recombinant full length human C-terminal GST-tagged IKKepsilon expressed in baculovirus expression system using biotin-labelled Ahx-GDEDFSSFAEPG peptide as substrate preincubated with enzyme for 15 mins followed by substrate addition and further incubated for 30 mins in presence of 10 uM of ATP by TR-FRET assay
T2 sequence (Q14164 whole entry): T1 sequence (Q14164 whole entry)

[5] = Apparent permeability of compound across apical to basal membrane in human Caco2 cells at 2 uM in DMSO after 2 hrs by LC-MS/MS analysis; format: ADME, cell-based; conditions: Caco-2
[6] = target: T3, Serine/threonine-protein kinase TBK1 (Homo sapiens, UniProt Q9UHD2); experiment: Inhibition of recombinant full length human N-terminal His-tagged TBK1 using biotin-labelled Ahx-GDEDFSSFAEPG peptide as substrate preincubated with enzyme for 15 mins followed by substrate addition and further incubated for 30 mins in presence of 1 mM of ATP by TR-FRET assay
T3 sequence (Q9UHD2 whole entry): T1 sequence (Q9UHD2 whole entry)

[7] = target: T4, Receptor-type tyrosine-protein kinase FLT3 (Homo sapiens, UniProt P36888); experiment: Inhibition of recombinant human N-terminal GST-tagged FLT3 (564 to end residues) expressed in sf21 cells using biotin labelled Ahx-GGEEEEYFELVKKKK peptide as substrate preincubated with enzyme for 15 mins followed by substrate addition and further incubated for 45 mins in presence of 10 uM of ATP by TR-FRET assay
T4 sequence (P36888 whole entry): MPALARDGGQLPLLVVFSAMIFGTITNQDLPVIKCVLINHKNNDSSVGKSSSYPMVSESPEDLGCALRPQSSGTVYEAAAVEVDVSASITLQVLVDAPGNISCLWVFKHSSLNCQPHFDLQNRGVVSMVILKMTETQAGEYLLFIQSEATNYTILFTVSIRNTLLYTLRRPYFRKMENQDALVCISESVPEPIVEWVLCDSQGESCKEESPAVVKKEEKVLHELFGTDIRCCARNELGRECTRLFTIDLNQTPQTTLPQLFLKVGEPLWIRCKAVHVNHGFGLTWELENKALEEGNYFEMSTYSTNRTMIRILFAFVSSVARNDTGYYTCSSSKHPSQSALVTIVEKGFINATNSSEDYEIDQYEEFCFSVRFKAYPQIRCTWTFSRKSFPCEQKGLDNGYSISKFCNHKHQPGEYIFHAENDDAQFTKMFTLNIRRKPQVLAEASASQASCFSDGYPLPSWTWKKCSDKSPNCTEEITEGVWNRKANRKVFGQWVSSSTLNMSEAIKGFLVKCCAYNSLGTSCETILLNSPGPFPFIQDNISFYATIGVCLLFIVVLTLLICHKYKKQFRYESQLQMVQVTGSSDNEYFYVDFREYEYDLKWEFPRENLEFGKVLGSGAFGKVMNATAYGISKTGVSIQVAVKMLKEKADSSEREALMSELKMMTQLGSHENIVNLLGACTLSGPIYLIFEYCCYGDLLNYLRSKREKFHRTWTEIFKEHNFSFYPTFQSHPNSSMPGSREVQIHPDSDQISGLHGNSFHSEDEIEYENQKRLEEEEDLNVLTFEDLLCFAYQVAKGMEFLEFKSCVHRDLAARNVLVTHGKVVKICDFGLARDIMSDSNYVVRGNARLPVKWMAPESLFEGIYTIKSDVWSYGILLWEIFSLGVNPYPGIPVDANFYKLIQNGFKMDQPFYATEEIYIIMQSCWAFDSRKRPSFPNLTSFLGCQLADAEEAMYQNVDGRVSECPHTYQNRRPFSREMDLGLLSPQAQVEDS

[8] = target: T5, Serine/threonine-protein kinase 17A (Homo sapiens, UniProt Q9UEE5); experiment: Inhibition of wild-type human partial length DRAK1 (R32 to E363 residues) expressed in bacterial expression system by Kinomescan method
T5 sequence (Q9UEE5 whole entry): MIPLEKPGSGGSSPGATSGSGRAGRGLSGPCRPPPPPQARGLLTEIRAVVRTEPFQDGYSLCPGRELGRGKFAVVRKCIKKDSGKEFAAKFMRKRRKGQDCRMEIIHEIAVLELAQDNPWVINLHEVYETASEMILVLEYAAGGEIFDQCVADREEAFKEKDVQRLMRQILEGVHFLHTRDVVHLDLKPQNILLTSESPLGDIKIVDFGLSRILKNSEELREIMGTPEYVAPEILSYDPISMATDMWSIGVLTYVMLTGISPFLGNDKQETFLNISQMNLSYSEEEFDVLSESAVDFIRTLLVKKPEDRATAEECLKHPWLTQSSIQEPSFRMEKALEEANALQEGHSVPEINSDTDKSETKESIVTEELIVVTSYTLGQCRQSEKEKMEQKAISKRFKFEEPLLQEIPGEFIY

SK-MEL-2 = experiment: Antiproliferative activity against human SK-MEL-2 cells harboring NRAS/TP53 mutation assessed as reduction in cell viability after 96 hrs by CellTiter-Glo luminescence assay; format: functional, cell-based; conditions: SK-MEL-2, 96 h
[9] = target: T3, Serine/threonine-protein kinase TBK1
ACHN = experiment: Antiproliferative activity against human ACHN cells harboring CDKN2A mutation assessed as reduction in cell viability after 96 hrs by CellTiter-Glo luminescence assay; format: functional, cell-based

Chain of CDK9/cyclin T1 (O60563 whole entry): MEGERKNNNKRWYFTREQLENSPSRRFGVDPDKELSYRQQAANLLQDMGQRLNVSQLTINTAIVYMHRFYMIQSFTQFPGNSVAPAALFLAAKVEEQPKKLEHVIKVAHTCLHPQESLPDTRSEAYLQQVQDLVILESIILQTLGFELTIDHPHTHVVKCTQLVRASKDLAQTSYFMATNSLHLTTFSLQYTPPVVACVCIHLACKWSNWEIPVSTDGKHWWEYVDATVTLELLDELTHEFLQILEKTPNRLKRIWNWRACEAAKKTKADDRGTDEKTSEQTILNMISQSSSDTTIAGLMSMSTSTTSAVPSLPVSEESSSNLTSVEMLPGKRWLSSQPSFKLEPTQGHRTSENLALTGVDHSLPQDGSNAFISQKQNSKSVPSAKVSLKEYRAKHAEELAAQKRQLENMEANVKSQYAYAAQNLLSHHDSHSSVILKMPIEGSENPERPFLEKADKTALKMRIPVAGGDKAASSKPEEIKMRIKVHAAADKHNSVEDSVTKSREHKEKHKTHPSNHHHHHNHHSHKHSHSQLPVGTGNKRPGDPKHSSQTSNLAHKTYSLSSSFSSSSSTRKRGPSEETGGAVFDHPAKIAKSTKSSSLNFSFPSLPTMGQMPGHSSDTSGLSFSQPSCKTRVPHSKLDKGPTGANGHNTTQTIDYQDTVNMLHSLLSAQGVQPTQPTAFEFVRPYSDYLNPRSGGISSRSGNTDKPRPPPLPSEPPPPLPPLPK
Chain of CDK9/cyclin T1 (P50750 whole entry): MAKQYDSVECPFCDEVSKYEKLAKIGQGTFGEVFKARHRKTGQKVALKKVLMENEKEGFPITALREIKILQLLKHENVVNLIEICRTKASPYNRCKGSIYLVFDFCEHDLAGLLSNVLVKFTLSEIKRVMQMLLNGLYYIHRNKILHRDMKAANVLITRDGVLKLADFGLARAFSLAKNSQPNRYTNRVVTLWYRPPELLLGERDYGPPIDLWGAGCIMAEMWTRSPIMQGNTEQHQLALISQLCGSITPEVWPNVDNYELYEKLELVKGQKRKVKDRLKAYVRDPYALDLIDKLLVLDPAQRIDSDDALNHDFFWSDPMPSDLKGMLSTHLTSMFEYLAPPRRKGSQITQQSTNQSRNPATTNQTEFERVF
Chain of Ribosomal protein S6 kinase alpha-6 (Q9UK32 whole entry): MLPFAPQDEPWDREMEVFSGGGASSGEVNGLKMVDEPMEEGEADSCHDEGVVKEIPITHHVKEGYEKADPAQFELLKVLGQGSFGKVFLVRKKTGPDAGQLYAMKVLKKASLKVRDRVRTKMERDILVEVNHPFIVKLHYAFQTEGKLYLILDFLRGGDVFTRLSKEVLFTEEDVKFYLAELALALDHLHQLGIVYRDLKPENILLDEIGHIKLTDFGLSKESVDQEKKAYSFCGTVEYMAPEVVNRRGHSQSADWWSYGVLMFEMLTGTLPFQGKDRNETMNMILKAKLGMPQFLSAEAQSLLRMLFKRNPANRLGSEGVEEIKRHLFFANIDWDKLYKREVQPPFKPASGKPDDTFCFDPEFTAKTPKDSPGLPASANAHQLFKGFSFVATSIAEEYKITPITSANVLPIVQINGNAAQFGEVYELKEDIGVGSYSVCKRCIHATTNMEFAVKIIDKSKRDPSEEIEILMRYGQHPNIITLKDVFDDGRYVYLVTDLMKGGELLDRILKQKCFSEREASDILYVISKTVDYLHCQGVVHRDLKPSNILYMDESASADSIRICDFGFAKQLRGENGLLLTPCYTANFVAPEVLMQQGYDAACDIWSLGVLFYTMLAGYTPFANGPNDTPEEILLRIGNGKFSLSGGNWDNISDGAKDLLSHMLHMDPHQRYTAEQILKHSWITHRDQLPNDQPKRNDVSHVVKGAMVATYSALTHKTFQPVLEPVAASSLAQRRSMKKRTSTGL

| Compound | IC50 (IKK epsilon/TBK1) | IC50 (CDK9/cyclin T1) | efflux ratio [1] | IC50 [2] | Papp B→A at 2 h, 2 µM [3] | IC50 [4] | Papp A→B at 2 h, 2 µM [5] | IC50 [6] | IC50 [7] | IC50 [8] | IC50 (SK-MEL-2) | IC50 [9] | IC50 (ACHN) |
| --- | --- | --- | --- | --- | --- | --- | --- | --- | --- | --- | --- | --- | --- |
| CCn1cc(-c2ccc3nc(Nc4cc(CN5CCN(C(=O)CC(F)(F)F)CC5)ccn4)[nH]c3c2)cn1 | 1.58 µM | 1.46 µM | 10 | 8.85 µM | 17.3 ×10⁻⁶ cm/s | 0.098 µM | 1.7 ×10⁻⁶ cm/s | 0.53 µM | 0.017 µM | – | – | – | – |
| C[C@H](c1ccnc(Nc2nc3ccc(-c4cnn(CC5CCC5)c4)cc3[nH]2)c1)N1CCN(C(=O)CC(F)(F)F)CC1 | 0.093 µM | > 20 µM | – | 0.325 µM | – | 0.004 µM | – | 0.006 µM | 0.357 µM | 0.015 µM | 3.71 µM | 0.002 µM | 5.42 µM |
| N#Cc1ccc2nc(Nc3cc(CN4CCN(C(=O)CC(F)(F)F)CC4)ccn3)[nH]c2c1 | 2.03 µM | 0.005 µM | 8.3 | – | 26.8 ×10⁻⁶ cm/s | 0.017 µM | 3.2 ×10⁻⁶ cm/s | 0.618 µM | – | – | – | 0.029 µM | – |
| O=C(NCC1CC1)c1ccc2nc(Nc3cc(CN4CCN(C(=O)CC(F)(F)F)CC4)ccn3)[nH]c2c1 | – | > 20 µM | 40 | – | 15.5 ×10⁻⁶ cm/s | 0.08 µM | 0.39 ×10⁻⁶ cm/s | 1.39 µM | – | – | 3.36 µM | 0.093 µM | > 33 µM |
